Entries after “also recorded” stand apart in the source; their conditions may differ. Ends that are not written are not given here.
Experiments:
plasmid pTG11236 = experiment: Gel retardation assay (DNA binding activity)
Procedure: 3 μg of the plasmid pTG11236 were incubated with increasing amounts of the respective peptide in a final volume of 30 μl with 0.9% NaCl. After 20 min of incubation at room temperature, 6 μl 5× loading buffer (glycerol and bromphenol blue in TAE buffer) were added and 10 μl of these solutions were analyzed on a 1% agarose gel in the presence of ethidium bromide.
The ability of ppTG1 peptide to complex DNA was analyzed by gel retardation assays. […] After 20 minutes incubation at room temperature, loading buffer was added and 10 μl of the resulting solution were analyzed on a 1% agarose gel.
ppTG1 derivatives as they are indicated in Materials and Methods, were tested for their capacity to bind plasmid DNA by gel retardation assays.

[1] = Liposome leakage assay, POPC/cholesterol 3:2 liposomes; assay type: biochemical
Text: FIG. 9: Liposome leakage assay. […] Emitted fluorescence was plotted against peptide concentration. […] C) Comparison of ppTG1, ppTG20 and ppTG21 at pH 7.
Leakage activity was plotted against peptide concentration.

HeLa cells [2] = experiment: Transfection in vitro, luciferase plasmid pTG11236; assay type: cell-based
Procedure: Cells were plated on 24 well plates at a density of 4×10^4 (293-EBNA ) or 7×10^4 (HeLa, Renca) cells/well in DMEM supplemented with 10% FCS. The next day, the medium was replaced by 200 μl serum-free DMEM and plasmid (PTG11056 or pTG11236)/peptide complexes or plasmid/peptide/lipid complexes were prepared in 30 μl 0.9% NaCl or 5% glucose. After 20 min at room temperature these complexes were added to the cells which were then incubated for 2-3 h at 37° C. and 5% CO2 before 1 ml serum-containing DMEM was added. Approximately 20 hours later, cells were lysed by addition of 100 μl 1× Promega lysis buffer, 20 μl of the lysates were analysed for luciferase activity. Proteins were quantified with the bicinchonic acid (BCA) colorimetric method (Smith, Anal. Biochem. 150 (1985), 76-85). […]
HeLa cells were seeded at a density of 6×10^4 cells on 24 well plates. The next day, cells were incubated with 200 μl serum-free medium, 30 μl of plasmid (50 ng)/peptide/lipid mixtures were added and incubated for 3 h at 37° C. in 5% CO2. 1 ml of DMEM+10% FCS was then added. The next day, the medium was removed and cells were washed with 500 μl of PBS and subsequently treated with 100 μl of Promega lysis buffer. Plates were stored at −80° C. until luciferase activity was measured of 20 μl of the cell lysate. The protein assay was performed using the Pierce BCA kit.
JTS1 was dissolved to 1 mg/ml in 1 mM NaOH and mixed with DNA diluted in 5% glucose. ppTG1 was then added to this solution. The pcTG90/DOPE ppTG1 mixtures were prepared as described in Example 6. Transfection assays were performed on HeLa cells with 50 ng of plasmid as described in Example 6.
The series of ppTG1 derivatives listed in Material and Methods were tested for their gene transfer efficiencies in Hela cells. 6×10^4 cells were transfected with 50 ng pTG11236 complexed with increasing amounts of peptide. Luciferase activity was analyzed day 1 after transfection. The results are shown in FIG. 10B (ppTG20, ppTG21), FIG. 10C (ppTG25, ppTG26, ppTG27), FIG. 10D (ppTG28 to ppTG33), FIG. 10E (PEG-ppTG1 and PEG-ppTG20), FIG. 10F (ppTG22 to ppTG24) and FIG. 10G (ppTG20-D).

CHO cells = experiment: Transfection in vitro, luciferase plasmid pTG11236; assay type: cell-based
Procedure: A comparison of ppTG1 and KALA was carried out in HeLa and CHO cells. 5×10^4 cells were seeded on 24 well plates. The next day, cells were transfected with 500 ng and 50 ng of pTG11236, complexed with ppTG1 or KALA in 30μl 0.9% NaCl. The charge ratio±varied from 1, 2, 3, 4, 7 to 10. Cells were harvested 20 h after transfection and lysis was obtained in 100 μl Promega lysis buffer. Luciferase activity and total protein concentrations in 20 μl were determined.

[3] = system: WiDr, MDA-MB-435S, SW480 and LoVo; experiment: Transfection of human tumor cell lines; assay type: cell-based; conditions: peptide/plasmid pTG11236 complexes, luciferase day 1
Procedure: WiDr (ATCC CCL-218), MDA-MB-435S (ATCC HTB-129), SW480 (ATCC CCL-228) and LoVo cell (CCL-229) were cultivated in the appropriate medium with 10% fetal calf serum, 1% gentamycine, 1% glutamine and 3 g/l glucose, in an incubator at 37° C. and 5% CO2.
The transfection efficiencies with plasmid/ppTG1 complexes were tested in the human tumor cells WiDr, MDA-MB-435S, SW480 and LoVo (ATCC) in comparison to lipofectin, PEI and pcTG90/DOPE (1:1) [±] 5.

HeLa cells [4] = experiment: Transfection in the presence of Bafilomycin A; assay type: cell-based; conditions: 175 nM Bafilomycin A, 150 ng pTG11236
Procedure: Transfection in the presence of Bafilomycin A: 6×10^4 HeLa cells were plated on 24 well plates. Cells were treated with 175 nM Bafilomycin A 30 min before and throughout the transfection (1 h incubation of cells with transfection mix in the absence of serum).
Bafilomycin A is a specific inhibitor of the vacuolar proton pump. Treatment with Bafilomycin inhibits the acidification of late endosomes. HeLa cells were treated with Bafilomycin A (175 nM) 30 min before and throughout the transfection (1 h incubation with transfection complexes in the absence of serum). 6×10^4 cells were transfected with 150 ng pTG11236 using PEI or ppTG1. The luciferase assay was performed 1 day after transfection.

B6SJL mice, lungs [5] = experiment: In vivo gene transfer after intravenous injection, luciferase activity in the lungs
Procedure: Mice were sacrificed at day 1.
Lungs were tested for luciferase activity.

B6SJL mice, lungs [6] = experiment: as above; conditions: 3 days after injection

GLFKALLKLLKSLWKLLLKA
DNA complexed (plasmid pTG11236; 1 μg peptide (0.35 nmol), 3 μg pTG11236): 50%
amount of peptide giving retardation of plasmid (plasmid pTG11236; 3 μg plasmid DNA pTG11236 (0,8 pmol)): 4 µg
liposome leakage activity ([1]; POPC/Chol (3:2) liposomes, pH not separated (compared at pH 5 and pH 7)): destabilizes efficiently
liposome leakage activity / calcein release ([1]; POPC/chol liposomes, pH 7): efficiently liberate calcein
liposome leakage of peptide/plasmid pTG11236 complexes ([1]; charge ratios (P/N) of 1 or 0.8, pH 7): slightly reduced
liposome leakage of peptide/plasmid pTG11236 complexes ([1]; excess of peptide, P/N 5 or 10, pH 7): comparable to free ppTG1
improvement of the transfection efficiency of pcTG90/DOPE (HeLa cells [2]; 50 ng plasmid, final charge ratio 3, 5 and 10, ppTG1 contributing 1/3, 1/5 and 1/10 of the positive charge): at least 1 log
improvement of the transfection efficiency of pcTG90/DOPE (HeLa cells [2]; 50 ng plasmid, final charge ratio 5 and 10, ppTG1 contributing 2/3 and 7/10 of the positive charge): 2 log
transfection, peptide alone (HeLa cells [2]; 50 ng plasmid, final charge ratio of 3): better results than pcTG90/DOPE alone
comparison as transfection reagent (HeLa cells [2]; 0.5 μg or 0.05 μg pTG11236): better transfection reagent than JTS-1-K13
luciferase activities (HeLa cells [2]; 0.5 μg or 0.05 μg pTG11236 with 1.17 μg or 0.117 μg peptide, charge ratio 1.8): comparable luciferase activities as observed for DNA formulated with Lipofectin
more efficient than the complex comprising KALA (HeLa cells [2]; HeLa cells, in the best case): 3000 fold
more efficient in gene transfer than KALA (CHO cells; 50 ng pTG11236): 68 fold
more efficient in gene transfer than KALA (CHO cells; 500 ng pTG11236): 9 fold
more efficient than the complex comprising KALA (CHO cells; CHO cells, in the best case): 2500 fold
transfection of human tumor cell lines [3]: successfully transfected; also recorded: can efficiently transfect
effect of Bafilomycin A on transfection efficiency (HeLa cells [4]): did not influence
re-administration of peptide/plasmid complexes (B6SJL mice, lungs [5]; at day 3 after the first injection): refractory
re-administration of peptide/plasmid complexes (B6SJL mice, lungs [5]; at day 14 after the first injection): re-appearance of reporter gene expression
mice with gene expression in the lung (B6SJL mice, lungs [5]; complexes of pTG11236 and peptide, intravenous, day 1): 5 out of 5
gene transfer efficiency in the lung (B6SJL mice, lungs [5]; pTG11236/peptide complexes intravenously injected, luciferase day 1): at least comparable to gene transfer with the optimized lipoplexes; also recorded: comparable to those obtained with the lipoplexes; also recorded: better than with JTS-1-K13
improvement of gene expression by presence of peptide in complexes comprising cationic lipids (B6SJL mice, lungs [5]; pcTG90/DOPE 1:2 complexes, intravenous, lung, day 1): 10 factor
gene expression over time (B6SJL mice, lungs [6]): background levels

Source: US20040132188A1, “Use of non-complexing peptides for the preparation of a composition for transfection of a polynucleotide into a cell and compositions useful in gene therapy” (priority 2001, published 2004)
